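Step 1: Grow cells in 96-well plates. Step 2: Expose to compound for 48 hours at 5 concentrations. Step 3: Interpolate endpoints linearly; if unreached, use highest concentration. GI50: concentration for 50% inhibition of growth.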 Activity calls are given as the source filed them. No stated cut-off is given here; in the data, active = GI50 up to about 1.1 µM and inactive = higher.
How the values were obtained:
Experiment in all cases: growth of human tumour cells (NCI), 48 h
SN12C = test system: SN12C
M14 = test system: M14
KM12 = test system: KM12
UO-31 = test system: UO-31
UACC-257 = test system: UACC-257
T47D = test system: T47D
K562 = test system: K562
MCF7 = test system: MCF7
EKVX = test system: EKVX
NCI-H226 = test system: NCI-H226
NCI/ADR-RES = test system: NCI/ADR-RES
ACHN = test system: ACHN
LOX IMVI = test system: LOX IMVI
HCT-116 = test system: HCT-116
MDA-MB-231 = test system: MDA-MB-231
A549 = test system: A549
UACC-62 = test system: UACC-62
HL-60 = test system: HL-60
MOLT-4 = test system: MOLT-4
SR = test system: SR

Measured: GI50

O=C1CCCc2ccc3c(c21)CC1(Cc2ccccc2C1)C3
inactive: SN12C 26.1 µM | M14 34.6 µM | KM12 38.9 µM | UO-31 50.1 µM | UACC-257 21.4 µM | T47D 44.2 µM | K562 10.8 µM | MCF7 57.5 µM | EKVX 7.78 µM | NCI-H226 13.3 µM | NCI/ADR-RES 50.6 µM | ACHN 12.2 µM | LOX IMVI 30.6 µM | HCT-116 23 µM | MDA-MB-231 27.5 µM | A549 34.7 µM | UACC-62 26.1 µM

COc1cc(N(CCC#N)CCC#N)ccc1C(/N=N/c1ccccc1C)=N\NC(=O)c1ccc(C)cc1
inactive: SN12C 44.1 µM | M14 > 100 µM | KM12 49.1 µM | UO-31 76.2 µM | UACC-257 61.2 µM | T47D 38.2 µM | K562 29.8 µM | EKVX 28.4 µM | NCI-H226 > 100 µM | HL-60 2.15 µM | NCI/ADR-RES > 100 µM | LOX IMVI 40.8 µM | HCT-116 36.1 µM | MOLT-4 28 µM | MDA-MB-231 25.5 µM | A549 59.6 µM | UACC-62 43.4 µM

Nc1ccc(C(=O)Nn2c(-c3ccccc3)nc3ccccc3c2=O)cc1
inactive: SN12C > 100 µM | SR > 100 µM | M14 > 100 µM | KM12 > 100 µM | UO-31 > 100 µM | UACC-257 > 100 µM | T47D > 100 µM | K562 > 100 µM | MCF7 > 100 µM | EKVX > 100 µM | NCI-H226 > 100 µM | HL-60 > 100 µM | ACHN > 100 µM | LOX IMVI > 100 µM | HCT-116 > 100 µM | MOLT-4 > 100 µM | MDA-MB-231 > 100 µM | A549 > 100 µM | UACC-62 > 100 µM

CC(C)(Br)C(Br)CCC1(C2CO2)CO1 (centres undefined)
inactive: SN12C > 5 µM | M14 > 5 µM | UO-31 > 5 µM | UACC-257 > 5 µM | T47D > 5 µM | K562 > 5 µM | MCF7 > 5 µM | EKVX > 5 µM | NCI-H226 > 5 µM | NCI/ADR-RES > 5 µM | ACHN > 5 µM | HCT-116 > 5 µM | MOLT-4 > 5 µM | MDA-MB-231 > 5 µM | A549 > 5 µM

COc1ccc2c(c1)CC1Cc3cc(OC)c(OC)cc3CN1CC2 (centres undefined)
inactive: SR 17.7 µM | M14 48.2 µM | KM12 34.7 µM | UO-31 15.3 µM | UACC-257 33.8 µM | T47D 23.9 µM | K562 17.5 µM | EKVX 32.8 µM | NCI-H226 21.7 µM | HL-60 11.1 µM | NCI/ADR-RES 31.8 µM | ACHN 21.5 µM | LOX IMVI 23.5 µM | HCT-116 23.5 µM | MOLT-4 24 µM | MDA-MB-231 42.6 µM | A549 42.4 µM | UACC-62 25.2 µM

O=C1C=CC(=O)c2c(O)nc(CBr)nc21
inactive: SN12C 38.5 µM | M14 61.5 µM | KM12 52 µM | UO-31 > 100 µM | UACC-257 > 100 µM | T47D > 100 µM | K562 94.4 µM | MCF7 56.2 µM | EKVX > 100 µM | HL-60 14.9 µM | NCI/ADR-RES > 100 µM | ACHN > 100 µM | LOX IMVI > 100 µM | HCT-116 56.8 µM | MOLT-4 > 100 µM | MDA-MB-231 61 µM | A549 > 100 µM | UACC-62 46.5 µM
